Experimental data: patent US20190031618A1, “BENZIMIDAZOLE DERIVATIVES USEFUL AS CB-1 INVERSE AGONISTS” (Janssen Pharmaceutica NV, priority 2015, published 2019)

Legend:
[1] = biological target: Human CB1R (Cannabinoid receptor 1) (Homo sapiens, UniProt P21554); assay: CB-1 in vitro cAMP (HTRF) assay; type: cell-based; conditions: HEK cells, cAMP HTRF, 250 nM forskolin; mean where tested more than once; read-out: CB1 HEK_cAMP EC50
Summary of the method: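 Intracellular cAMP from HTRF ratio (d2-cAMP vs Eu-cryptate anti-cAMP), converted to nM via per-plate standards, in stable human CB1R HEK-293 cells.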

[2] = biological target: Human CB2R (Cannabinoid receptor 2) (Homo sapiens, UniProt P34972); assay: CB-2 in vitro cAMP (HTRF) assay; type: cell-based; conditions: HEK cells, cAMP HTRF, 250 nM forskolin; mean where tested more than once; read-out: CB2 HEK_cAMP EC50
Chain of Human CB2R (Cannabinoid receptor 2) (P34972 whole entry): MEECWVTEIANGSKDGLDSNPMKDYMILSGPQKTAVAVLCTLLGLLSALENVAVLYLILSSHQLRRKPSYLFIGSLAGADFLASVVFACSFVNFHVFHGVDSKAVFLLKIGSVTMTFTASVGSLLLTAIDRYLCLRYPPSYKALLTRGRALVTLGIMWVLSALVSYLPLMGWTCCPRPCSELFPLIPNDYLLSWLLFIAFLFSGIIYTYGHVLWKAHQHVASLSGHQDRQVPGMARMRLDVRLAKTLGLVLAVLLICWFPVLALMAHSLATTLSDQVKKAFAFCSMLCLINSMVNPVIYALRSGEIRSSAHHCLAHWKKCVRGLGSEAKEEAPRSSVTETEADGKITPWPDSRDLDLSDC
Summary of the method: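 Competitive HTRF read-out (d2-labelled cAMP vs cryptate antibody) quantifies cAMP in stably transfected HEK-293 cells, seeded the day before at 4E5 cells/mL. Stimulation buffer: HBSS, 5 mM HEPES, 0.1% BSA, 0.5 mM IBMX; forskolin prepared at 1.5 μM in buffer; compounds serially diluted 1/3 in DMSO.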

Chain of Human CB1R (Cannabinoid receptor 1) (P21554 whole entry): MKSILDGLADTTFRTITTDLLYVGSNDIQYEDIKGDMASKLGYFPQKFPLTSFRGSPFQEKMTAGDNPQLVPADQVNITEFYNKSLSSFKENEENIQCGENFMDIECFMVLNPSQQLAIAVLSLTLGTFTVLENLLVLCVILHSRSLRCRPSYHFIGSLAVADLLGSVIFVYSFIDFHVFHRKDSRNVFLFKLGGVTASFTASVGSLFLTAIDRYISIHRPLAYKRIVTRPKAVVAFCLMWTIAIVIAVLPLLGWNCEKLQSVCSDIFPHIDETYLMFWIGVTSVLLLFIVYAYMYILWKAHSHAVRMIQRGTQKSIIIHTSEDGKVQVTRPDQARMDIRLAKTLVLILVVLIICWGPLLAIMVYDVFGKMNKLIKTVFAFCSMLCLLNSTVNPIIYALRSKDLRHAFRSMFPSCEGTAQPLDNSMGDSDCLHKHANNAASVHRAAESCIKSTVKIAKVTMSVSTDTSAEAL

SMILES | EC50 [1] [nM] | EC50 [2] [nM]
COCC(c1ccc(Cl)cc1)(c1ccc(Cl)cc1)c1ccc2nc(C3CC3)n(C3CCN(S(=O)(=O)c4ccc(C(=O)O)c(Cl)c4)CC3)c2c1 [Example 178] | 67.5 | > 10000
COc1ccc(-n2c(C3CC3)nc3ccc(C(c4ccc(Cl)cc4)c4ccc(Cl)cc4)cc32)cc1 [Example 179] | 1.7 | > 10000
Oc1cccc(-n2c(C3CC3)nc3ccc(C(c4ccc(Cl)cc4)c4ccc(Cl)cc4)cc32)c1 [Example 180] | 17.1 | > 10000
COc1cccc(-n2c(C3CC3)nc3ccc(C(c4ccc(Cl)cc4)c4ccc(Cl)cc4)cc32)c1 [Example 181] | 25 | > 10000
NC(=O)COc1ccc(Cn2c(C3CC3)nc3ccc(C(c4ccc(Cl)cc4)c4ccc(Cl)cc4)cc32)cc1 [Example 182] | 255 | 2930
Oc1ccc(Cn2c(C3CC3)nc3ccc(C(c4ccc(Cl)cc4)c4ccc(Cl)cc4)cc32)cc1 [Example 183] | 31.4 | 6300
NC(=O)c1ccc(S(=O)(=O)N2CCC(n3c(C4CC4)nc4ccc(C(c5ccc(Cl)cc5)c5ccc(Cl)cc5)cc43)CC2)cc1C(F)(F)F [Example 184] | 31.4 | > 10000
CNC(=O)c1cccc(S(=O)(=O)N2CCC(n3c(C4CC4)nc4ccc(C(c5ccc(Cl)cc5)c5ccc(Cl)cc5)cc43)CC2)c1 [Example 186] | 25.3 | > 10000
COc1ccc(S(=O)(=O)N2CCC(n3c(C4CC4)nc4ccc(C(c5ccc(Cl)cc5)c5ccc(Cl)cc5)cc43)CC2)cc1C(N)=O [Example 187] | 51.8 | > 10000
Cc1ccc(S(=O)(=O)N2CCC(n3c(C4CC4)nc4ccc(C(c5ccc(Cl)cc5)c5ccc(Cl)cc5)cc43)CC2)cc1C(=O)O [Example 188] | 160 | > 10000
NC(=O)c1ccc(S(=O)(=O)N2CCC(n3c(C4CC4)nc4ccc(C(c5ccc(Cl)cc5)c5ccc(Cl)cc5)cc43)CC2)cc1F [Example 189] | 29.5 | > 10000
O=C(O)c1ccc(S(=O)(=O)N2CCC(n3c(C4CC4)nc4ccc(C(c5ccc(Cl)cc5)c5ccc(Cl)cc5)cc43)CC2)cc1F [Example 190] | 11.3 | 699
O=C(NCCCO)c1cccc(S(=O)(=O)N2CCC(n3c(C4CC4)nc4ccc(C(c5ccc(Cl)cc5)c5ccc(Cl)cc5)cc43)CC2)c1 [Example 191] | 21 | > 10000
COc1cc(S(=O)(=O)N2CCC(n3c(C4CC4)nc4ccc(C(CO)(c5ccc(Cl)cc5)c5ccc(Cl)cc5)cc43)CC2)ccc1C(N)=O [Example 192] | 5050 | > 10000
COc1cc(S(=O)(=O)N2CCC(n3c(C4CC4)nc4ccc(C(CO)(c5ccc(Cl)cc5)c5ccc(Cl)cc5)cc43)CC2)ccc1C(=O)O [Example 193] | > 10000 | > 10000
O=C(c1c[nH]nn1)N1CCC(n2c(C3CC3)nc3ccc(C(c4ccccc4)c4ccccc4)cc32)CC1 [Example 198] | 4800 | > 10000
O=C(c1cn[nH]n1)N1CCC(n2c(C3CC3)nc3ccc(C(c4ccc(Cl)cc4)c4ccc(Cl)cc4)cc32)CC1 [Example 199] | 173 | 6500
O=C(c1nc[nH]n1)N1CCC(n2c(C3CC3)nc3ccc(C(c4ccccc4)c4ccccc4)cc32)CC1 [Example 200] | 4720 | 6310
O=C(c1nc[nH]n1)N1CCC(n2c(C3CC3)nc3ccc(C(c4ccc(Cl)cc4)c4ccc(Cl)cc4)cc32)CC1 [Example 201] | 63.8 | 990
O=S(=O)(N1CCC(n2c(C3CC3)nc3c(O)cc(C(c4ccc(Cl)cc4)c4ccc(Cl)cc4)cc32)CC1)C(F)(F)F [Example 202] | 31.2 | > 10000
COC(=O)CCNC(=O)c1cccc(S(=O)(=O)N2CCC(n3c(C4CC4)nc4ccc(C(c5ccc(Cl)cc5)c5ccc(Cl)cc5)cc43)CC2)c1 [Example 203] | 32.4 | > 10000
O=C(NCCO)c1ccc(S(=O)(=O)N2CCC(n3c(C4CC4)nc4ccc(C(c5ccc(Cl)cc5)c5ccc(Cl)cc5)cc43)CC2)cn1 [Example 204] | 94.4 | > 10000
O=C(NCCO)c1cccc(S(=O)(=O)N2CCC(n3c(C4CC4)nc4ccc(C(c5ccc(Cl)cc5)c5ccc(Cl)cc5)cc43)CC2)c1 [Example 205] | 36.7 | 5730
Cc1cc(S(=O)(=O)N2CCC(n3c(C4CC4)nc4ccc(C(c5ccc(Cl)cc5)c5ccc(Cl)cc5)cc43)CC2)ccc1C(N)=O [Example 206] | 101 | > 10000
Cc1cc(S(=O)(=O)N2CCC(n3c(C4CC4)nc4ccc(C(c5ccc(Cl)cc5)c5ccc(Cl)cc5)cc43)CC2)ccc1C(=O)O [Example 207] | 6.4 | 4660

SMILES | EC50 [1] [nM] | EC50 [2] [nM]
COc1ccc(S(=O)(=O)N2CCC(n3c(C4CC4)nc4ccc(C(c5ccc(Cl)cc5)c5ccc(Cl)cc5)cc43)CC2)cc1C(=O)O [Example 211] | 589 | 10200
NC(=O)c1ccc(S(=O)(=O)N2CCC(n3c(C4CC4)nc4ccc(C(CO)(c5ccc(Cl)cc5)c5ccc(Cl)cc5)cc43)CC2)cc1Cl [Example 212] | 3740 | > 10000
O=C(O)c1ccc(S(=O)(=O)N2CCC(n3c(C4CC4)nc4ccc(C(CO)(c5ccc(Cl)cc5)c5ccc(Cl)cc5)cc43)CC2)cc1Cl [Example 213] | 8310 | > 10000
O=C(O)c1cc(S(=O)(=O)N2CCC(n3c(C4CC4)nc4ccc(C(c5ccc(Cl)cc5)c5ccc(Cl)cc5)cc43)CC2)ccc1Cl [Example 214] | 22.5 | 5050
Cc1cc(C(N)=O)sc1S(=O)(=O)N1CCC(n2c(C3CC3)nc3ccc(C(c4ccc(Cl)cc4)c4ccc(Cl)cc4)cc32)CC1 [Example 215] | 2 | > 10000
NC(=O)c1csc(S(=O)(=O)N2CCC(n3c(C4CC4)nc4ccc(C(c5ccc(Cl)cc5)c5ccc(Cl)cc5)cc43)CC2)c1 [Example 216] | 6.2 | > 10000
NC(=O)c1cc(S(=O)(=O)N2CCC(n3c(C4CC4)nc4ccc(C(c5ccc(Cl)cc5)c5ccc(Cl)cc5)cc43)CC2)ccc1F [Example 217] | 9.2 | > 10000
Cc1cc(C(=O)O)sc1S(=O)(=O)N1CCC(n2c(C3CC3)nc3ccc(C(c4ccc(Cl)cc4)c4ccc(Cl)cc4)cc32)CC1 [Example 218] | 7.2 | 1440
O=S(=O)(c1ccc(O)c(F)c1)N1CCC(n2c(C3CC3)nc3ccc(C(c4ccc(Cl)cc4)c4ccc(Cl)cc4)cc32)CC1 [Example 220] | 1370 | 5840
O=S(=O)(c1cc(Cl)c(O)c(Cl)c1)N1CCC(n2c(C3CC3)nc3ccc(C(c4ccc(Cl)cc4)c4ccc(Cl)cc4)cc32)CC1 [Example 222] | 11 | 4960
NC(=O)c1ccc(C(=O)N2CCC(n3c(C4CC4)nc4ccc(C(c5ccc(Cl)cc5)c5ccc(Cl)cc5)cc43)CC2)cn1 [Example 223] | 24.8 | 3340
NC(=O)c1ccc(S(=O)(=O)N2CCC(n3c(C4CC4)nc4ccc(C(c5ccc(Cl)cc5)c5ccc(Cl)cc5)cc43)CC2)o1 [Example 224] | 6 | > 10000
COc1ccc(S(=O)(=O)N2CCC(n3c(C4CC4)nc4ccc(C(c5ccc(Cl)cc5)c5ccc(Cl)cc5)cc43)CC2)cc1F [Example 225] | 41.5 | > 10000
O=C(O)c1cc(S(=O)(=O)N2CCC(n3c(C4CC4)nc4ccc(C(c5ccc(Cl)cc5)c5ccc(Cl)cc5)cc43)CC2)ccc1F [Example 226] | 16.7 | 7820
NC(=O)c1ccc(S(=O)(=O)N2CCC(n3c(C4CC4)nc4ccc(C(CO)(c5ccc(Cl)cc5)c5ccc(Cl)cc5)cc43)CC2)cc1 [Example 227] | 2040 | > 10000
O=C(O)c1ccc(S(=O)(=O)N2CCC(n3c(C4CC4)nc4ccc(C(CO)(c5ccc(Cl)cc5)c5ccc(Cl)cc5)cc43)CC2)cc1 [Example 228] | 8300 | > 10000
NS(=O)(=O)c1cccc(C(=O)N2CCC(n3c(C4CC4)nc4ccc(C(c5ccc(Cl)cc5)c5ccc(Cl)cc5)cc43)CC2)c1 [Example 229] | 13.7 | 1780
NS(=O)(=O)c1ccc(C(=O)N2CCC(n3c(C4CC4)nc4ccc(C(c5ccc(Cl)cc5)c5ccc(Cl)cc5)cc43)CC2)cc1 [Example 230] | 91.9 | 5900
O=C(O)c1ccc(C(=O)N2CCC(n3c(C4CC4)nc4ccc(C(c5ccc(Cl)cc5)c5ccc(Cl)cc5)cc43)CC2)cn1 [Example 231] | 709 | > 10000
O=C(CCO)N1CCC(n2c(C3CC3)nc3ccc(C(c4ccc(Cl)cc4)c4ccc(Cl)cc4)cc32)CC1 [Example 234] | 16.1 | 9530
NC(=O)c1ccc(S(=O)(=O)N2CCC(n3c(C4CC4)nc4ccc(C(c5ccc(Cl)cc5)c5ccc(Cl)cc5)cc43)CC2)cn1 [Example 238] | 1.9 | > 10000
O=C(CO)N1CCC(n2c(C3CC3)nc3ccc(C(c4ccc(Cl)cc4)c4ccc(Cl)cc4)cc32)CC1 [Example 240] | 14.9 | 2100
O=C(O)c1ccccc1S(=O)(=O)N1CCC(n2c(C3CC3)nc3ccc(C(c4ccc(Cl)cc4)c4ccc(Cl)cc4)cc32)CC1 [Example 241] | 459 | 7900
NC(=O)c1ccccc1S(=O)(=O)N1CCC(n2c(C3CC3)nc3ccc(C(c4ccc(Cl)cc4)c4ccc(Cl)cc4)cc32)CC1 [Example 243] | 35.9 | 347
CCc1nc2ccc(C(CO)(c3ccc(Cl)cc3)c3ccc(Cl)cc3)cc2n1C1CCN(S(=O)(=O)C(F)(F)F)CC1 [Example 244] | 534 | > 10000
